Results reported in BindingDB's records for patent US11691989 (Ascentage Pharma (Suzhou), 2023).
pIC50: −log10 of the molar value.

Molecular target: T1, Induced myeloid leukemia cell differentiation protein Mcl-1 [171-323] (Homo sapiens, UniProt Q07820)
T1 construct: 171-323
Assay: Inhibition of Mcl-1 by fluorescence polarization (FP) assay
Protocol: The relative binding potency of representative Compounds of the Disclosure was determined by a fluorescence polarization (FP) assay. The method used a fluorescein labelled peptide (FAM-Bid) which binds to the Mcl-1 protein leading to an increased anisotropy measured in milli-polarization (mP) values using a plate reader. […] A 10-points serial dilution of each compound was prepared in DMSO and 5 μL solution was transferred into flat bottomed, 96-well back plate (final DMSO concentration […]). 120 μL of Buffer (PBS, 0.01% BGG (Sigma Cat. #SRE0011), 0.01% Triton X-100), containing the Fluorescein labelled peptide (Final concentration 2 nM) and Mcl-1 protein (final concentration 20 nM) was then added. […] 10-points dose response curves were plotted with GraphPad software using Sigmoidal Dose-Response Model and the IC50 values were determined by nonlinear regression fitting of the competition curves.

T1 sequence (Q07820 171-323): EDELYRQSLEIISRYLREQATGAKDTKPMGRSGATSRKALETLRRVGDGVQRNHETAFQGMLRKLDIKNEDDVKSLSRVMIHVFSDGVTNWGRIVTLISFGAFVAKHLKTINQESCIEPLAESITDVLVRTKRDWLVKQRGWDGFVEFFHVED

pIC50	SMILES
7.72	Cc1c2c(nn1C)CSCc1cc(n(C)n1)CSc1cc(c3ccc(F)cc3c1)OCCCn1c(C(=O)O)cc3c-2c(Cl)ccc31 [US11691989, Compound 13]
7.82	Cc1c(C(=O)O)n2c3ccc(Cl)c(c13)-c1c(nn(C)c1C)CSCc1cc(n(C(C)C)n1)CSc1cc(c3ccc(F)cc3c1)OCCC2 [US11691989, Compound 17]
